Source: patent US20010042520A1, “Method for producing model animals for itching induced by disruption of cutaneous barrier function” (priority 2000, published 2001)

Tests used:
Format in all cases: in vivo, male ICR mice
[1] = test system: scratching action induced by the disruption of the cutaneous barrier function of mice; assay: Scratching action of mice with disrupted cutaneous barrier function (acetone/diethylether mixture and distilled water, twice daily for 5 days); conditions: for number of the scratching action based on that of the control group: 120 minutes recording, control average = 100%, average ± standard error, 8 mice; for number of the scratching action bouts per 120 minutes: 10% aqueous solution, control group 126.5±20.8, significant
From the text: (§1) A rostral part (4 cm^2, i.e. 2 cm×2 cm) of the back skin in each of 10 male ICR mice was shaved. Four days after the shaving, the following test was started: The skin was covered with a 2 cm×2 cm absorbent cotton impregnated with a mixture of acetone and diethylether (1:1) for 15 seconds. The skin was wiped to remove superfluous solvent, then covered with an absorbent cotton impregnated with distilled water for 30 seconds, and wiped in the same manner as that described above. This treatment for disrupting the cutaneous barrier function of the skin was conducted twice in daily at intervals of at least 8 hours for 5 days. In a control group, only the shaving was conducted.
On the next day after the completion of the 5 days treatment for disrupting the skin barrier function, each mouse was placed in each section of an acrylic acid resin cage (26×18×33 cm) divided into four sections (each section: 13×9×33 cm). After the mice was acclimatized to the cage in unmanned environment for 60 minutes, the action of each mouse was recorded for 120 minutes with a 8 mm video camera placed above the cage in such a manner that the 4 sections are in one scene. The scratching action was observed by playing back the video tape. The number of the scratching action by which the tip of a toe of a hind limb of the mouse touched the shaved part of the skin in 120 minutes was counted by the visual observation. One scratching action was a series of action beginning when the mouse raised its hind limb for starting the scratching and ending when the animal lowers its hind limb.
The effect of Terfenadine, which is a histamine H1 receptor antagonist, and that of Naloxone, which is an opioid antagonist, for relieving the itching were determined with the same test materials as those in Example 1. The barrier function-disrupting treatment was conducted in the same manner as that of Example 1. On the next day after the completion of the 5 days barrier function disrupting treatment, the scratching action of mice was recorded for 120 minutes in the same manner as that of Example 1. The observation of the behavior of the mice and the counting of the number of times of the scratching action were conducted in the same manner as that of Example 1. 10 mg/kg of Terfenadine which is the histamine H1 receptor antagonist, was perorally administered at 30 minutes before the starting to record the scratching action, or 1 mg/kg of Naloxone, which is an opioid receptor antagonist, was subcutaneously injected at 15 minutes before the starting to record the scratching action. […]
(§2) The effect of glycerol (humectant) on the skin manifestations and itching induced by the barrier disruption treatment of the present invention was determined by using the test animals similar to those used in Example 1. […] The skin manifestations were examined by the visual observation and the determination of hydration of the stratum corneum based on the relative electrostatic capacitance determined with Corneometer CM 825 (Courage+Khazaka Electronics, Cologne, Germany). Hydration of the stratum corneum was determined before starting the first barrier disrupting treatment every day and on the next day after the completion of the five days barrier disruption treatment. As for the scratching action, the scratching action of each mouse was filmed and recorded for 120 minutes in the same manner as that in Example 1 on next day after the completion of the five days barrier disruption treatment. […]

[2] = test system: hydration of the stratum corneum; assay: Hydration of the stratum corneum by relative electrostatic capacitance (Corneometer CM 825) in barrier-disrupted mice
From the text: as §1
as §2, with “treatment.” for “treatment. As for the scratching action, the scratching action of each mouse was filmed and recorded for 120 minutes in the same manner as that in Example 1 on next day after the completion of the five days barrier disruption treatment.”

[3] = test system: formation of scales and wrinkles induced by the cutaneous barrier disruption; assay: Visual observation of skin manifestations (scales and wrinkles) in barrier-disrupted mice
From the text: as §1
as §2, with “treatment.” for “treatment. As for the scratching action, the scratching action of each mouse was filmed and recorded for 120 minutes in the same manner as that in Example 1 on next day after the completion of the five days barrier disruption treatment.”

[4] = 10 mg/kg perorally 30 minutes before recording

C=CCN1CC[C@]23c4c5ccc(O)c4O[C@H]2C(=O)CC[C@@]3(O)[C@H]1C5 [Naloxone]
number of the scratching action based on that of the control group ([1]; 1 mg/kg subcutaneously 15 minutes before recording, significant vs control (5%)): 42.5±13.1%

CC(C)(C)c1ccc(C(O)CCCN2CCC(C(O)(c3ccccc3)c3ccccc3)CC2)cc1 (stereo not drawn) [Terfenadine]
suppressing effect on the scratching action [1, 4]: no suppressing effect was recognized
number of the scratching action based on that of the control group [1, 4]: 124.2±49.3%

OCC(O)CO [glycerol]
number of the scratching action bouts per 120 minutes ([1]; 50 μl applied for 5 days, one hour after each barrier disruption treatment): 42.5±10.0 per 120 minutes
number of the scratching action bouts per 120 minutes ([1]; 50 μl applied for one day (twice on the fifth day)): 76.5±14.6 per 120 minutes
hydration of the stratum corneum (relative electrostatic capacitance) ([2]; 10% aqueous solution applied for 5 days, next day after the 5 days barrier disrupting treatment, 40.0±1.2 before start, control 15.5±2.1): 44.7±3.0
hydration of the stratum corneum (relative electrostatic capacitance) ([2]; 10% aqueous solution applied for one day, recovered from 20.5±1.3 after 4 days of treatment, 43.5±1.3 before start): 41.3±2.6
formation of scales and wrinkles induced by the cutaneous barrier disruption ([3]; 10% aqueous solution applied for 5 days): completely inhibited
scales and wrinkle formation ([3]; 10% aqueous solution applied for one day): slight scales and wrinkle formation was observed
